Experimental data published in US20180271847A1, “TREATMENT OF ACUTE TRAUMATIC INJURY” (priority 2015, published 2018).

Legend:
Type in all cases: in vivo
[1] = tested on: lipofuscin; assay: Auto-fluorescence / lipofuscin accumulation after spinal cord contusion injury; settings: rats with contusion injuries to the spinal cord
Source text: 4-aminopyridine administration decreases auto-fluorescence following contusion injury to the spinal cord. One of the responses to tissue injury in a broad variety of tissues is the accumulation of substances that may be given the general name of lipofuscin, a name given to lipid-containing residues of lysosomal digestion. This pigment is thought to be the product of oxidation of unsaturated fatty acids and is considered indicative of membrane damage of a nature that occurs widely in tissue injury, a variety of diseases and in aging. Lipofuscin is most readily observed as an auto-fluorescent component of tissue that is seen when tissue is excited with a wide range of […] wavelengths normally used for studying fluorescently labeled proteins, such as antibodies, that are widely used in studying all of the tissues of the body. Lipofuscin accumulation has been reported for cell types of a wide range of tissues, particularly after injury, including liver, kidney, heart muscle, retina, adrenal gland, nerve cells, and red-blood cells, in post-traumatic arthritis and in other tissues.
This is another wholly unexpected ability of 4-AP to beneficially modulate an outcome of traumatic injury that is applicable to a wide range of different tissues.

[2] = tested on: Sox 9; assay: Sox 9 immunofluorescence in spinal cord sections after contusion injury; settings: rats with contusion injuries to the spinal cord, versus control
Source text: FIG. 5A and FIG. 5B are images illustrating a section of control (FIG. 5A) and 4-AP (FIG. 5B) treated animals labeled with anti-Sox 9 (bright spots) and DAPI (darker grey). Arrows highlight the cells that were used to define the baseline threshold for Sox 9 immunofluorescence. Size bar represents 20 μm. FIG. 5C is a graph showing quantification of FIG. 5A and FIG. 5B using the threshold shown in A as baseline. N=3, *p=0.045 t-test.
The ability of daily 4-AP administration to provide benefit at the tissue level was investigated, leading to the wholly unexpected discovery of effects of 4-AP that are relevant to traumatic injuries in a wide range of tissues. The first such observation came from examination of the expression of Sox 9, a transcription factor that is expressed in a wide range of tissues of the nervous system, other excitable tissues and tissues that are not considered to be excitable (including, for example, pancreas, lung, chondrocytes, cartilage, liver, breast, prostate, colorectal, intestine and testis). Among other roles, Sox 9 controls production and expression of chondroitin sulfate proteoglycan, a critical component of scar in many different tissues. […]

[3] = tested on: skeletal muscle atrophy; assay: Skeletal muscle atrophy after complete denervation (nerve transection)
Protocol: Treatment with 4AP decreased muscle expression of MuRF-1 (FIG. 11A) and myogenin (FIG. 11B) (both normalized to GADPH) after complete denervation. […] Thus, the beneficial effects of 4AP on parameters of atrophy were not dependent on restoration of normal motor usage. *=p<0.05; ** p<0.01.
In this example, the nerve innovating the extensor digitorum longus muscle was completely transected 15-25 mm distant from the muscle. 4-AP was then administered during the acute and subacute post-injury periods.

[4] = tested on: contusion injury to the spinal cord; assay: Lesion volume 3 days after spinal cord contusion injury; settings: rats with spinal cord contusion, sacrificed 3 days after injury
Protocol: FIG. 7 is a graph showing the unexpected ability of 4-AP to modulate outcomes of traumatic injury that are of relevance to the injury in all tissues of the body is the ability to decrease lesion size. In these experiments, rats received identical injuries as discussed in Example 1, except that these rats were sacrificed 3 days after injury. Lesion size, in cubic millimeters (mm^3) was calculated by imaging collected tissue sections covering the full dimensions of the injury using Stereolnvestigator and contours were traced to cover the region of the tissue in which damage was apparent. All slides were measured by a blinded individual. Lesion volume was thus determined. […]
Still another example of the unexpected ability of 4-AP to modulate outcomes of traumatic injury that are of relevance to such injury in all tissues of the body is the ability to decrease lesion size. […] Lesion size, in cubic millimeters (mm^3) was calculated by imaging collected tissue sections covering the full dimensions of the injury using Stereolnvestigator and contours were traced to cover the region of the tissue in which damage was apparent. All slides were measured by a blinded individual. Lesion volume was thus determined.

[5] = tested on: glial fibrillary acidic protein (GFAP); assay: GFAP labeling (scarring marker) in spinal cord sections after contusion injury; settings: rats with spinal cord contusion, compared with saline
Source text: FIG. 6A and FIG. 6B are images illustrating a section of spinal cords of placebo (saline) (FIG. 6A) and 4-AP (FIG. 6B) treated animals labeled with antibody against glial fibrillary acidic protein (GFAP), which is a marker of scarring in all regions of the central nervous system, (bright spots in FIG. 6A) and DAPI (bright spots in FIG. 6B). indicates the lesion edge. The size bar represents 100 μm. […] These outcomes provide further evidence that 4-AP administration is regulating a response to traumatic injury that is of relevance to traumatic injury in all tissues.
FIGS. 6A-6B further examines expression of a protein called glial fibrillary acidic protein (GFAP), which is one of the markers of scarring in all regions of the central nervous system. […] These outcomes provide further evidence that 4-AP administration is regulating a response to traumatic injury that is of relevance to traumatic injury in all tissues.

[6] = tested on: traumatic damage to the peripheral nervous system; assay: Recovery of function after traumatic damage to the peripheral nervous system; settings: following traumatic damage to the peripheral nervous system
[7] = after complete denervation, daily 4-AP

Nc1ccncc1 [4-AP, 4-aminopyridine]
lipofuscin accumulation (tissue auto-fluorescence) [1]: little evidence of lipofuscin accumulation
expression of Sox9 [2]: greatly decrease the expression of Sox9
muscle expression of MuRF-1 (normalized to GADPH) [3, 7]: decreased
muscle expression of myogenin (normalized to GADPH) [3, 7]: decreased
recovery of gait function ([3]; denervated animals): did not show any recovery of gait function
lesion size (lesion volume) [4]: greatly decreasing lesion size
GFAP, marker of central nervous system scarring [5]: greatly decreased
recovery of motor function and electrophysiological function [6]: more rapid recovery of motor function and electrophysiological function
